According to US20200022963A1, “PHARMACEUTICAL COMPOSITION COMPRISING BETAHISTINE” (Otolanum AG, priority 2017, published 2020):
Where two headings read alike, the source gives them in different places.

Assays:
[1] = Pharmacokinetic profile after single oral, intranasal and intravenous betahistine in beagle dogs, Example 5; assay type: in vivo; conditions: beagle, dog, in vivo
Protocol: In this study, the pharmacokinetic profile of betahistine was evaluated after a single dose administration of betahistine in male and female beagle dogs (age 5-7 months; weight of 5-11 kg, within a range of 3 kg for each sex) for three routes of administration: oral, intranasal, and intravenous.
On Day 1 of the study, betahistine (BH) was delivered orally at a dose of 12 mg/kg, 24 mg/kg, or 48 mg/kg. Each treatment group comprised 8 animals (4 males and 4 females). For pharmacokinetic assessment, plasma samples were collected prior to dosing, and then at 5, 10, 20 and 30 min, 1, 2, 3, 6, 24 hours after dosing.
On Day 8 of the study, the animals that received oral BH at a dose of 12 mg/kg were administered the test betahistine composition intranasally at a dose of 40 mg betahistine dihydrochloride; the animals that received oral BH at a dose of 24 mg/kg were administered the test betahistine composition intranasally at a dose of 80 mg betahistine dihydrochloride; and the animals that received oral BH at a dose of 48 mg/kg were administered the test betahistine composition intranasally at a dose of 120 mg betahistine dihydrochloride. The test betahistine composition was delivered intranasally in a single dose via an Aptar nasal spray pump device at a total dose level of 40, 80 and 120 mg of betahistine dihydrochloride. Plasma samples were collected prior to dosing, and then at 5, 10, 20 and 30 min, 1, 2, 3, 6, 24 hours after dosing.
On Day 15 of the study, the animals that received oral BH at a dose of 12 mg/kg and the test betahistine composition intranasally at a dose of 40 mg betahistine dihydrochloride were administered a bolus intravenous injection of betahistine at a dose of 0.44 mg/kg. Plasma samples were collected prior to dosing, and then at 5, 10, 20 and 30 min, 1, 2, 3, 6, 24 hours after dosing.
Betahistine 13CD3 dihydrochloride and 2-pyridylacetic acid-D4 hydrochloride were used as respective internal standards. The calibration range for betahistine was 0.05-250 ng/mL and for 2-PAA 2.00-3000 ng/mL using a plasma sample volume of 0.50 mL.
For determination of betahistine, the method involved liquid-liquid extraction, for 2-PAA, the method involved protein precipitation. Plasma samples were prepared for betahistine by extraction under basic conditions with an organic solvent, then the organic phase was dried, reconstituted and transferred for LC/MS-MS analysis. […] Sample analysis was performed using reversed phase chromatography.

[2] = cited from earlier work; for Tmax: 2-PAA after oral betahistine
[3] = female, inhaled or intranasal, 6 mg/kg
[4] = female, inhaled or intranasal, 13 mg/kg
[5] = female, inhaled or intranasal, 17.7 mg/kg
[6] = male, inhaled or intranasal, 5 mg/kg
[7] = male, inhaled or intranasal, 9.8 mg/kg
[8] = male, inhaled or intranasal, 15.8 mg/kg

AUC(0-inf) [1, 3]: 19000 ng·h/mL
AUC(0-t)/D [1, 3]: 3170 ± 812 hr*ng/mL/(mg/kg)
Cmax [1, 3]: 5570 ng/mL
Cmax/D [1, 3]: 928 ng/mL/(mg/kg)
Tmax [1, 3]: 0.75 h
half-life [1, 3]: 2.66 h
AUC(0-t) ([1]; female, inhaled or intranasal, 6 mg/kg, AUC(0-6)): 14800 ng·h/mL
AUC(0-t) ([1]; female, inhaled or intranasal, 6 mg/kg, AUC(0-t)): 19000 ng·h/mL
AUC(0-inf) [1, 4]: 25300 ng·h/mL
AUC(0-t)/D [1, 4]: 1940 ± 838 hr*ng/mL/(mg/kg)
Cmax [1, 4]: 7030 ng/mL
Cmax/D [1, 4]: 541 ng/mL/(mg/kg)
Tmax [1, 4]: 1 h
half-life [1, 4]: 2.97 h
AUC(0-t) ([1]; female, inhaled or intranasal, 13 mg/kg, AUC(0-6)): 19300 ng·h/mL
AUC(0-t) ([1]; female, inhaled or intranasal, 13 mg/kg, AUC(0-t)): 25200 ng·h/mL
AUC(0-6) [1, 5]: 10600 ng·h/mL
AUC(0-inf) [1, 5]: 14100 ng·h/mL
AUC(0-t)/D [1, 5]: 790 ± 307 hr*ng/mL/(mg/kg)
Cmax [1, 5]: 3810 ng/mL
Cmax/D [1, 5]: 215 ng/mL/(mg/kg)
T1/2 [1, 5]: 3.46 h
AUC(0-t) ([1]; female, inhaled or intranasal, 17.7 mg/kg, AUC(0-t)): 14000 ng·h/mL
AUC(0-6) ([1]; female, iv, 0.44 mg/kg): 1540 ± 101 ng·h/mL
AUC(0-inf) ([1]; female, iv, 0.44 mg/kg): 1860 ± 188 ng·h/mL
AUC(0-t) ([1]; female, iv, 0.44 mg/kg): 1830 ± 209 ng·h/mL
AUC(0-t)/D ([1]; female, iv, 0.44 mg/kg): 4160 ± 475 hr*ng/mL/(mg/kg)
Cmax ([1]; female, iv, 0.44 mg/kg): 722 ± 75.3 ng/mL
Cmax/D ([1]; female, iv, 0.44 mg/kg): 1640 ± 171 ng/mL/(mg/kg)
T1/2 ([1]; female, iv, 0.44 mg/kg): 2.78 h
Tmax (median) ([1]; female, iv, 0.44 mg/kg): 0.18 h
AUC(0-6) ([1]; female, po, 12 mg/kg): 41300 ng·h/mL
AUC(0-int) ([1]; female, po, 12 mg/kg): 57200 ± 11300 ng·h/mL
AUC(0-t) ([1]; female, po, 12 mg/kg): 57200 ± 11300 ng·h/mL
AUC(0-t)/D ([1]; female, po, 12 mg/kg): 4760 ± 940 hr*ng/mL/(mg/kg)
Cmax ([1]; female, po, 12 mg/kg): 14500 ng/mL
Cmax/D ([1]; female, po, 12 mg/kg): 1210 ng/mL/(mg/kg)
T1/2 ([1]; female, po, 12 mg/kg): 2.12 ± 0.110 h
AUC(0-6) ([1]; female, po, 24 mg/kg): 69300 ng·h/mL
AUC(0-int) ([1]; female, po, 24 mg/kg): 110000 ± 14300 ng·h/mL
AUC(0-t) ([1]; female, po, 24 mg/kg): 110000 ± 14300 ng·h/mL
AUC(0-t)/D ([1]; female, po, 24 mg/kg): 4590 ± 594 hr*ng/mL/(mg/kg)
Cmax ([1]; female, po, 24 mg/kg): 21300 ng/mL
Cmax/D ([1]; female, po, 24 mg/kg): 885 ng/mL/(mg/kg)
T1/2 ([1]; female, po, 24 mg/kg): 2.14 ± 0.176 h
Tmax (median) ([1]; female, po, 24 mg/kg): 2 h
AUC(0-6) ([1]; female, po, 48 mg/kg): 144000 ng·h/mL
AUC(0-int) ([1]; female, po, 48 mg/kg): 208000 ± 35000 ng·h/mL
AUC(0-t) ([1]; female, po, 48 mg/kg): 237000 ± 63500 ng·h/mL
AUC(0-t)/D ([1]; female, po, 48 mg/kg): 4930 ± 1320 hr*ng/mL/(mg/kg)
Cmax ([1]; female, po, 48 mg/kg): 37500 ng/mL
Cmax/D ([1]; female, po, 48 mg/kg): 781 ng/mL/(mg/kg)
T1/2 ([1]; female, po, 48 mg/kg): 2.24 ± 0.170 h
Tmax (median) ([1]; female, po, 48 mg/kg): 2 h
AUC(0-6) [1, 6]: 9440 ng·h/mL
AUC(0-inf) [1, 6]: 12200 ng·h/mL
AUC(0-t) [1, 6]: 12200 ng·h/mL
AUC(0-t)/D [1, 6]: 2440 ± 2160 hr*ng/mL/(mg/kg)
Cmax [1, 6]: 3480 ng/mL
Cmax/D [1, 6]: 695 ng/mL/(mg/kg)
T1/2 [1, 6]: 2.96 h
Tmax (median) [1, 6]: 0.5 h
AUC(0-inf) [1, 7]: 10400 ng·h/mL
AUC(0-t)/D [1, 7]: 1060 ± 368 hr*ng/mL/(mg/kg)
Cmax [1, 7]: 3320 ng/mL
Cmax/D [1, 7]: 339 ng/mL/(mg/kg)
Tmax [1, 7]: 1 h
half-life [1, 7]: 2.86 h
AUC(0-t) ([1]; male, inhaled or intranasal, 9.8 mg/kg, AUC(0-6)): 8450 ng·h/mL
AUC(0-t) ([1]; male, inhaled or intranasal, 9.8 mg/kg, AUC(0-t)): 10400 ng·h/mL
AUC(0-inf) [1, 8]: 12800 ng·h/mL
AUC(0-t)/D [1, 8]: 806 ± 197 hr*ng/mL/(mg/kg)
Cmax [1, 8]: 3930 ng/mL
Cmax/D [1, 8]: 249 ng/mL/(mg/kg)
Tmax [1, 8]: 1 h
half-life [1, 8]: 2.87 h
AUC(0-t) ([1]; male, inhaled or intranasal, 15.8 mg/kg, AUC(0-6)): 10200 ng·h/mL
AUC(0-t) ([1]; male, inhaled or intranasal, 15.8 mg/kg, AUC(0-t)): 12700 ng·h/mL
AUC(0-6) ([1]; male, iv, 0.44 mg/kg): 1450 ± 388 ng·h/mL
AUC(0-inf) ([1]; male, iv, 0.44 mg/kg): 1760 ± 642 ng·h/mL
AUC(0-t) ([1]; male, iv, 0.44 mg/kg): 1740 ± 641 ng·h/mL
AUC(0-t)/D ([1]; male, iv, 0.44 mg/kg): 3960 ± 1460 hr*ng/mL/(mg/kg)
Cmax ([1]; male, iv, 0.44 mg/kg): 736 ± 53.5 ng/mL
Cmax/D ([1]; male, iv, 0.44 mg/kg): 1670 ± 121 ng/mL/(mg/kg)
T1/2 ([1]; male, iv, 0.44 mg/kg): 2.59 h
Tmax (median) ([1]; male, iv, 0.44 mg/kg): 0.13 h
AUC(0-6) ([1]; male, po, 12 mg/kg): 37300 ng·h/mL
AUC(0-int) ([1]; male, po, 12 mg/kg): 50500 ± 21100 ng·h/mL
AUC(0-t) ([1]; male, po, 12 mg/kg): 50500 ± 21100 ng·h/mL
AUC(0-t)/D ([1]; male, po, 12 mg/kg): 4210 ± 1760 hr*ng/mL/(mg/kg)
Cmax ([1]; male, po, 12 mg/kg): 12700 ng/mL
Cmax/D ([1]; male, po, 12 mg/kg): 1060 ng/mL/(mg/kg)
T1/2 ([1]; male, po, 12 mg/kg): 2.21 ± 0.160 h
AUC(0-int) ([1]; male, po, 24 mg/kg): 107000 ± 28200 ng·h/mL
AUC(0-t)/D ([1]; male, po, 24 mg/kg): 4460 ± 1180 hr*ng/mL/(mg/kg)
Cmax ([1]; male, po, 24 mg/kg): 26400 ng/mL
Cmax/D ([1]; male, po, 24 mg/kg): 1100 ng/mL/(mg/kg)
T1/2 ([1]; male, po, 24 mg/kg): 2.04 ± 0.107 h
Tmax ([1]; male, po, 24 mg/kg): 1.5 h
AUC(0-t) ([1]; male, po, 24 mg/kg, AUC(0-6)): 76400 ng·h/mL
AUC(0-t) ([1]; male, po, 24 mg/kg, AUC(0-t)): 107000 ± 28200 ng·h/mL
AUC(0-6) ([1]; male, po, 48 mg/kg): 178000 ng·h/mL
AUC(0-int) ([1]; male, po, 48 mg/kg): 286000 ± 39300 ng·h/mL
AUC(0-t) ([1]; male, po, 48 mg/kg): 286000 ± 39200 ng·h/mL
AUC(0-t)/D ([1]; male, po, 48 mg/kg): 5950 ± 817 hr*ng/mL/(mg/kg)
Cmax ([1]; male, po, 48 mg/kg): 50900 ng/mL
Cmax/D ([1]; male, po, 48 mg/kg): 1060 ng/mL/(mg/kg)
T1/2 ([1]; male, po, 48 mg/kg): 2.10 ± 0.181 h
Tmax (median) ([1]; male, po, 48 mg/kg): 2 h
Structure (SMILES): O=C(O)Cc1ccccn1 [2-PAA, 2-pyridylacetic acid]
peak concentration ([2]; human, 2-PAA after oral betahistine 16 mg, Val et al.): 522 ng/mL
Tmax ([2]; human, Chen et al. (2003)): 1 h
Tmax ([2]; human, Moorthy et al.): 1.5 h
pharmacological activity ([2]; metabolite formed by monoamine oxidase): no pharmacological activity
